Key:
[1] = test system: pluripotent cells of mesenchymal origin; experiment: Cell morphology of the cell culture after treatment; type: cell-based, human
Method: In order to isolate pluripotent cells of mesenchymal origin, small pieces of Substantia spongiosa, biopsied from the human wing of ilium were digested at 37° C. in 2 ml of DMEM (Dulbecco's modified eagles medium with 4.5 g/l of glucose) with 2.5 mg/ml collagenase for 3 h. The cell pellet obtained from the digested pieces by multiple centrifugation was inoculated in a density of 200000 cells/cm^2 and was incubated for 24 h in DMEM with 10% foetal calf serum (FCS) and specifically at 37° C., 5% C02 and 100% humidity. One preparation gives a growth area of 60 to 180 cm^2. The culture medium was changed twice a week. Before the cells are confluent after six days, they are passaged in the usual way. The first passage is cultivated further under the standard conditions described until the logarithmic growth phase is reached after three days. The culture medium is then exchanged for a medium which was adjusted to an osmolarity of 360 mosmol/l with the aid of saccharose and, in addition to DMEM mixed with 10% FCS, contains 50 μg/ml of ascorbic acid-2-phosphate. The cells are incubated for four days in this culture medium. […] In addition, the secretion of type I collagen and its cross-linking increases. […]

[2] = test system: pluripotent cells of mesenchymal origin; experiment: Western Blot analysis for the collagen production; type: cell-based, human; settings: for secretion of type I collagen (double band at 130 kD): vs untreated sample a; for cross-linking of the collagen (area of 400 kD): compared to sample b
Method: In order to isolate pluripotent cells of mesenchymal origin, small pieces of Substantia spongiosa, biopsied from the human wing of ilium were digested at 37° C. in 2 ml of DMEM (Dulbecco's modified eagles medium with 4.5 g/l of glucose) with 2.5 mg/ml collagenase for 3 h. The cell pellet obtained from the digested pieces by multiple centrifugation was inoculated in a density of 200000 cells/cm^2 and was incubated for 24 h in DMEM with 10% foetal calf serum (FCS) and specifically at 37° C., 5% C02 and 100% humidity. One preparation gives a growth area of 60 to 180 cm^2. The culture medium was changed twice a week. Before the cells are confluent after six days, they are passaged in the usual way. The first passage is cultivated further under the standard conditions described until the logarithmic growth phase is reached after three days. The culture medium is then exchanged for a medium which was adjusted to an osmolarity of 360 mosmol/l with the aid of saccharose and, in addition to DMEM mixed with 10% FCS, contains 50 μg/ml of ascorbic acid-2-phosphate. The cells are incubated for four days in this culture medium. […] In addition, the secretion of type I collagen and its cross-linking increases. Following stimulation of the cells to enhanced collagen secretion under hyperosmolar conditions, they are cultivated in a standard culture medium for a further 12 h in order to then be investigated.

[3] = sample c: treatment under hyperosmolar conditions
[4] = sample c: treatment under hyperosmolar conditions, listed as ascorbic-2-phosphate

## O=C1O[C@H]([C@@H](O)CO)C(O)=C1OP(=O)(O)O [ascorbic acid-2-phosphate]
[1]; 50 μg/ml, hyperosmolar conditions (360 mosmol/l with saccharose), four days
  change in the cellular phenotype: the cells become fibroblastic
[1]; treatment with ascorbic-2-phosphate, polygonal structure before treatment
  cell structure (FIG. 1 vs FIG. 2): fibroblastic structures
[2]; sample b: treatment without hyperosmolar conditions
  secretion of type I collagen (double band at 130 kD): significant increase
[2]; [3]
  resistance to digestion with pepsin: more resistant to digestion with pepsin
  cross-linking of the collagen (area of 400 kD): increases
  secretion of type I collagen (double band at 130 kD): increases
[2]; [4]
  cross-linking of the collagen (area of 400 kD): enhanced cross-linking
  secretion of type I collagen (double band at 130 kD): significant increase
